Reference: patent US20260274833A1 (NiKang Therapeutics, Inc., priority 2022, published 2026)

Target: T1, CDK2 (Homo sapiens, UniProt P24941)
T1 construct: endogenous in cells; host or cells: OVCAR3 cells
Test: Phospho-RB measurement in OVCAR3 cells (HTRF phospho-RB cellular kit)
Type: cell-based
Details: inhibition of RB phosphorylation at S807/811 (HTRF, TR-FRET ratio 665/620), 24 h compound treatment, 0.3 to 10,000 nM
Method in brief: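 IC50 came from a four-parameter logistic fit of the DMSO-normalized TR-FRET ratio (665/620 nm). That ratio reflects RB phosphorylation at S807/811, read with an HTRF antibody pair 4 h after adding lysate at room temperature.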

Compound	IC50
CC(C)(C)c1nc(-c2cccc(NS(=O)(=O)N3Cc4cccc(-c5cccc(C#N)c5)c4C3)c2F)c(-c2ccnc(NC3CCN(S(C)(=O)=O)CC3)n2)s1 [Example 227, N-(3-(2-(tert-butyl)-5-(2-((1-(methylsulfonyl)-piperidin-4-yl)amino)-pyrimidin-4-yl)thiazol-4-yl)-2-fluoro-phenyl)-4-(3-cyanophenyl)-isoindoline-2-sulfonamide]	517 nM
CC(C)(C)c1nc(-c2cccc(NS(=O)(=O)N3Cc4cccc(C5CCCCC5)c4C3)c2F)c(-c2ccnc(NC3CCN(S(C)(=O)=O)CC3)n2)s1 [Example 228, N-(3-(2-(tert-butyl)-5-(2-((1-(methylsulfonyl)-piperidin-4-yl)amino)-pyrimidin-4-yl)thiazol-4-yl)-2-fluoro-phenyl)-4-cyclohexyliso-indoline-2-sulfonamide]	1510 nM
CC(O)c1cccc2c1CCN2S(=O)(=O)Nc1cccc(-c2nc(C(C)(C)C)sc2-c2ccnc(NC3CC4(C3)CS(=O)(=O)C4)n2)c1F (centres unmarked) [Example 229, N-(3-(2-(tert-butyl)-5-(2-((2,2-dioxido-2-thiaspiro[3.3]heptan-6-yl)amino)-pyrimidin-4-yl)thiazol-4-yl)-2-fluoro-phenyl)-4-(1-hydroxyethyl)-indoline-1-sulfonamide]	145 nM
CC(C)(C)c1nc(-c2cccc(NS(=O)(=O)N3CCc4c3cccc4C(C)(C)O)c2F)c(-c2ccnc(NC3CC4(C3)CS(=O)(=O)C4)n2)s1 [Example 230, N-(3-(2-(tert-butyl)-5-(2-((2,2-dioxido-2-thiaspiro[3.3]heptan-6-yl)amino)-pyrimidin-4-yl)thiazol-4-yl)~2-fluoro-phenyl)-4-(2-hydroxypropan-2-yl)-indoline-1-sulfonamide]	354 nM
CC(C)(C)c1nc(-c2cccc(NS(=O)(=O)N3Cc4ccc(CO)cc4C3)c2F)c(-c2ccnc(NC3CC4(C3)CS(=O)(=O)C4)n2)s1 [Example 231, N-(3-(2-(tert-butyl)-5-(2-((2,2-dioxido-2-thiaspiro[3.3]heptan-6-yl)amino)-pyrimidin-4-yl)thiazol-4-yl)-2-fluorophenyl)-5-(hydroxymethyl)-isoindoline-2-sulfonamide]	77.4 nM
CC(C)(C)c1nc(-c2cccc(NS(=O)(=O)N3Cc4cccc(Cc5ccccc5)c4C3)c2F)c(-c2ccnc(NC3CC4(C3)CS(=O)(=O)C4)n2)s1 [Example 232, 4-benzyl-N-(3-(2-(tert-butyl)-5-(2-((2,2-dioxido-2-thiaspiro[3.3]heptan-6-yl)amino)-pyrimidin-4-yl)thiazol-4-yl)-2-fluorophenyl)-isoindoline-2-sulfonamide]	939 nM
COCCN1CCN(c2ccc(Nc3nccc(-c4sc(C(C)(C)C)nc4-c4cccc(NS(=O)(=O)N5CCc6ccc(C#N)cc65)c4F)n3)cc2)CC1 [Example 233, N-(3-(2-(tert-butyl)-5-(2-((4-(4-(2-methoxy-ethyl)piperazin-1-yl)phenyl)-amino)-pyrimidin-4-yl)thiazol-4-yl)-2-fluorophenyl)-6-cyanoindoline-1-sulfonamide]	765 nM
COCCOCCN1CCN(c2ccc(Nc3nccc(-c4sc(C(C)(C)C)nc4-c4cccc(NS(=O)(=O)N5CCc6ccc(C#N)cc65)c4F)n3)cc2)CC1 [Example 234, N-(3-(2-(tert-butyl)-5-(2-((4-(4-(2-(2-methoxy-ethoxy)ethyl)piperazin-1-yl)phenyl)amino)-pyrimidin-4-yl)thiazol-4-yl)-2-fluorophenyl)-6-cyanoindoline-1-sulfonamide]	1200 nM
CC(C)(C)OC(=O)N1CCN(c2ccc(Nc3nccc(-c4sc(C(C)(C)C)nc4-c4cccc(NS(=O)(=O)N5CCc6ccc(C#N)cc65)c4F)n3)cc2)CC1 [Example 235, tert-butyl 4-(4-((4-(2-(tert-butyl)-4-(3-((6-cyanoindoline)-1-sulfonamido)-2-fluorophenyl)thiazol-5-yl)pyrimidin-2-yl)amino)phenyl) piperazine-1-carboxylate]	3390 nM
CC1(c2nc(-c3cccc(NS(=O)(=O)N4CCc5ccc(C#N)cc54)c3F)c(-c3ccnc(Nc4ccc(N5CCNCC5)cc4)n3)s2)CCOCC1 [Example 236, 6-cyano-N-(2-fluoro-3-(2-(4-methyltetrahydro-2H-pyran-4-yl)-5-(2-((4-(piperazin-1-yl)-phenyl)amino)-pyrimidin-4-yl)thiazol-4-yl)-phenyl)indoline-1-sulfonamide]	477 nM
CC(C)(C)c1nc(-c2cccc(NS(=O)(=O)N3Cc4cccc(OCCO)c4C3)c2F)c(-c2ccnc(NC3CCN(S(C)(=O)=O)CC3)n2)s1 [Example 237, N-(3-(2-(tert-butyl)-5-(2-((1-(methylsulfonyl)-piperidin-4-yl)amino)-pyrimidin-4-yl)thiazol-4-yl)-2-fluoro-phenyl)-4-(2-hydroxyethoxy)-isoindoline-2-sulfonamide]	297 nM
CC(C)(C)c1nc(-c2cccc(NS(=O)(=O)N3CCc4c(CC#N)cccc43)c2F)c(-c2ccnc(NC3CC4(C3)CS(=O)(=O)C4)n2)s1 [Example 238, N-(3-(2-(tert-butyl)-5-(2-((2,2-dioxido-2-thiaspiro[3.3]heptan-6-yl)amino)-pyrimidin-4-yl)thiazol-4-yl)-2-fluoro-phenyl)-4-(cyanomethyl) indoline-1-sulfonamide]	295 nM
CC(C)(C)c1nc(-c2cccc(NS(=O)(=O)N3Cc4ccnc(O)c4C3)c2F)c(-c2ccnc(NC3CCN(S(C)(=O)=O)CC3)n2)s1 [Example 239, N-(3-(2-(tert-butyl)-5-(2-((1-(methylsulfonyl)-piperidin-4-yl)amino)-pyrimidin-4-yl)thiazol-4-yl)-2-fluoro-phenyl)-4-hydroxy-1,3-dihydro-2H-pyrrolo[3,4-c] pyridine-2-sulfonamide]	4690 nM
CC1(c2nc(-c3cccc(NS(=O)(=O)N4CCc5ccc(C#N)cc54)c3F)c(-c3ccnc(NC4CC5CS(=O)(=O)CC5C4)n3)s2)CCOCC1 (centres unmarked) [Example 240, 6-cyano-N-(3-(5-(2-((2,2-dioxidohexa-hydro-1H-cyclopenta[c]thiophen-5-yl)amino)-pyrimidin-4-yl)-2-(4-methyl-tetrahydro-2H-pyran-4-yl)thiazol-4-yl)-2-fluorophenyl)-indoline-1-sulfonamide]	38.2 nM
CN(C)Cc1cccc(Nc2nccc(-c3sc(C(C)(C)C)nc3-c3cccc(NS(=O)(=O)N4CCc5ccc(C#N)cc54)c3F)n2)c1 [Example 241, N-(3-(2-(tert-butyl)-5-(2-((3-((dimethylamino)-methyl)phenyl)-amino)pyrimidin-4-yl)thiazol-4-yl)-2-fluorophenyl)-6-cyanoindoline-1-sulfonamide]	521 nM
CC(C)(C)c1nc(-c2cccc(NS(=O)(=O)N3CCc4ccc(C#N)cc43)c2F)c(-c2ccnc(Nc3ccc(S(C)(=O)=O)cc3)n2)s1 [Example 242, N-(3-(2-(tert-butyl)-5-(2-((4-(methylsulfonyl)-phenyl)amino)-pyrimidin-4-yl)thiazol-4-yl)-2-fluoro-phenyl)-6-cyanoindoline-1-sulfonamide]	302 nM
CC(C)(C)c1nc(-c2cccc(NS(=O)(=O)N3Cc4ccc(C(F)(F)F)cc4C3)c2F)c(-c2ccnc(NC3CCN(S(C)(=O)=O)CC3)n2)s1 [Example 243, N-(3-(2-(tert-butyl)-5-(2-((1-(methylsulfonyl)-piperidin-4-yl)amino)-pyrimidin-4-yl)thiazol-4-yl)-2-fluoro-phenyl)-5-(trifluoromethyl)-isoindoline-2-sulfonamide]	1200 nM
